What was measured:
[1] = target: T1, FGR (Homo sapiens, UniProt P09769); assay: Cell free kinase inhibition assay; assay type: biochemical
T1 construct: purchased Carna Biosciences, Inc. (Kobe, Japan)

[2] = target: T2, KIF5B-RET (M918T) (Homo sapiens, UniProt P07949+P33176, M918T); assay: Western blot of RET phosphorylation in Nthy-ori 3-1 transfectants; assay type: cell-based; conditions: 1 h
T2 construct: KIF5B N-terminal portion (fusion partner); expressed in transfected cells; host or cells: Nthy-ori 3-1 (human normal thyroid cells), plasmid pCLxIP KIF5B-RET M918T
Text: (§1) The human full-length KIF5B-RET gene was chemically synthesized by GenScript Corp. (Piscataway, NJ) and then amplified by polymerase chain reaction (PCR) using a primer set containing attB recombination sequences. ENTRY vectors for the Gateway cloning system (Life Technologies) were generated via the BP Clonase reaction using the PCR products and the plasmid pDONR221. The expression vector pCLxIP KIF5B-RET was generated via the LR Clonase reaction between each ENTRY vector and the destination vector pCLxIP-DEST [37]. Expression vectors for KIF5B-RET M918T were generated by introducing a point mutation into the pCLxIP KIF5B-RET expression vector.

[3] = target: T3, KIF5B-RET (wild-type) (Homo sapiens, UniProt P07949+P33176); assay: as above; assay type: cell-based; conditions: 1 h
T3 construct: KIF5B N-terminal portion (fusion partner); expressed in transfected cells; host or cells: Nthy-ori 3-1 (human normal thyroid cells), plasmid pCLxIP KIF5B-RET
Text: as §1

[4] = target: T4, RAF1 (Homo sapiens, UniProt P04049); assay: Cell free kinase inhibition assay; assay type: biochemical
T4 construct: purchased Carna Biosciences, Inc. (Kobe, Japan)

[5] = target: T5, HER2 (Homo sapiens, UniProt P04626); assay: Cell free kinase inhibition assay; assay type: biochemical
T5 construct: purchased Carna Biosciences, Inc. (Kobe, Japan)

[6] = target: T6, MET (Homo sapiens, UniProt P08581); assay: Cell free kinase inhibition assay; assay type: biochemical
T6 construct: purchased Carna Biosciences, Inc. (Kobe, Japan)

[7] = target: T7, JAK2 (Homo sapiens, UniProt O60674); assay: Cell free kinase inhibition assay; assay type: biochemical
T7 construct: purchased Carna Biosciences, Inc. (Kobe, Japan)

[8] = test system: TCO-1 cells; assay: Antiproliferation assay (WST-8); assay type: cell-based; conditions: Homo sapiens, 72 h; TCO-1 (ATC), antiproliferative, 3 days
[9] = target: T8, PDGFRα(T674I) (Homo sapiens, UniProt P16234, T674I); assay: Cell free kinase inhibition assay; assay type: biochemical
T8 construct: purchased Carna Biosciences, Inc. (Kobe, Japan)

[10] = target: T9, IRAK4 (Homo sapiens, UniProt Q9NWZ3); assay: Cell free kinase inhibition assay; assay type: biochemical
T9 construct: purchased Carna Biosciences, Inc. (Kobe, Japan)

[11] = test system: KHM-5M cells; assay: Antiproliferation assay (WST-8); assay type: cell-based; conditions: Homo sapiens, 72 h; KHM-5M (ATC), antiproliferative, 3 days
[12] = Macroscopic changes and body weight during treatment of xenograft-bearing mice; assay type: in vivo; conditions: nude mice bearing xenografts, during daily oral treatment
Method: Tumor cells were cultured in appropriate culture mediums. Cells were harvested with 0.05% or 0.25% (w/v) trypsin/EDTA and suspended with 50% (v/v) BD Matrigel (BD Biosciences, San Jose, CA) in the mixture of culture mediums at a density of 5–10 × 10^7 cells/mL. Then, 0.1-0.2 mL of the cell suspension was inoculated subcutaneously into the right flank region of each mouse. […] The tumor size was measured in two dimensions by using a caliper, and the volume was calculated by using the formula: tumor volume (mm^3) = 1/2 length (mm) × [width (mm)]^2. The change in tumor volume in the treated group relative to that in the control group was calculated according to the following formula: ΔT/C = (ΔT/ΔC) × 100%, where ΔT and ΔC are the change in tumor volume (i.e., growth) for the treated and vehicle control group, respectively. The percentage of tumor growth inhibition (%TGI) was calculated from the formula: [(1 − ΔT/ΔC) × 100].

[13] = test system: RET (C634W) and ERK1/2; assay: Western blot of RET phosphorylation in TT cells; conditions: cultured TT cells, 1 h treatment
[14] = target: T10, MUSK (Homo sapiens, UniProt O15146); assay: Cell free kinase inhibition assay; assay type: biochemical
T10 construct: purchased Carna Biosciences, Inc. (Kobe, Japan)

[15] = test system: 8505C cells; assay: Antiproliferation assay (WST-8); assay type: cell-based; conditions: Homo sapiens, 72 h; 8505C (ATC), antiproliferative, 3 days
[16] = target: T11, PKACα (Homo sapiens, UniProt P17612); assay: Cell free kinase inhibition assay; assay type: biochemical
T11 construct: purchased Carna Biosciences, Inc. (Kobe, Japan)

[17] = target: T12, FGFR4 (Homo sapiens, UniProt P22455); assay: Cell free kinase inhibition assay; assay type: biochemical
T12 construct: purchased Carna Biosciences, Inc. (Kobe, Japan)

[18] = target: T13, KIT(T670I) (Homo sapiens, UniProt P10721, T670I); assay: Cell free kinase inhibition assay; assay type: biochemical
T13 construct: purchased Carna Biosciences, Inc. (Kobe, Japan)

[19] = target: T14, EPHA1 (Homo sapiens, UniProt P21709); assay: Cell free kinase inhibition assay; assay type: biochemical
T14 construct: purchased Carna Biosciences, Inc. (Kobe, Japan)

[20] = test system: TT xenograft; assay: Human thyroid cancer xenograft model, tumor growth; assay type: in vivo, nude mice
Method: (§2) Nude mice (CAnN.Cg-Foxn1nu/CrlCrlj, female, 5-6 weeks old) were obtained from Charles River Laboratories Japan (Kanagawa, Japan). Mice were maintained under specific pathogen-free conditions and housed in barrier facilities on a 12 h light/dark cycle, with food and water ad libitum. All procedures using laboratory animals were done in accordance with all applicable institutional and government regulatory guidelines and policies and were performed in an animal facility accredited by the Center for Accreditation of Laboratory Animal Care of the Japan Health Sciences Foundation. Tumor cells were cultured in appropriate culture mediums. […] Then, 0.1-0.2 mL of the cell suspension was inoculated subcutaneously into the right flank region of each mouse. […] The tumor size was measured in two dimensions by using a caliper, and the volume was calculated by using the formula: tumor volume (mm^3) = 1/2 length (mm) × [width (mm)]^2. The change in tumor volume in the treated group relative to that in the control group was calculated according to the following formula: ΔT/C = (ΔT/ΔC) × 100%, where ΔT and ΔC are the change in tumor volume (i.e., growth) for the treated and vehicle control group, respectively. The percentage of tumor growth inhibition (%TGI) was calculated from the formula: [(1 − ΔT/ΔC) × 100].

[21] = test system: K1 xenograft; assay: Human thyroid cancer xenograft model, tumor growth; assay type: in vivo, nude mice; conditions: K1 xenograft, 1, 3, and 10 mg/kg oral once daily 14 days
Method: as §2

[22] = target: T15, KIT(V654A) (Homo sapiens, UniProt P10721, V654A); assay: Cell free kinase inhibition assay; assay type: biochemical
T15 construct: purchased Carna Biosciences, Inc. (Kobe, Japan)

[23] = target: T16, FLT1/VEGFR1 (Homo sapiens, UniProt P17948); assay: Cell free kinase inhibition assay; assay type: biochemical
T16 construct: purchased Carna Biosciences, Inc. (Kobe, Japan)

T2 sequence (P07949 713-1063 M918T limits assumed, one chain of several): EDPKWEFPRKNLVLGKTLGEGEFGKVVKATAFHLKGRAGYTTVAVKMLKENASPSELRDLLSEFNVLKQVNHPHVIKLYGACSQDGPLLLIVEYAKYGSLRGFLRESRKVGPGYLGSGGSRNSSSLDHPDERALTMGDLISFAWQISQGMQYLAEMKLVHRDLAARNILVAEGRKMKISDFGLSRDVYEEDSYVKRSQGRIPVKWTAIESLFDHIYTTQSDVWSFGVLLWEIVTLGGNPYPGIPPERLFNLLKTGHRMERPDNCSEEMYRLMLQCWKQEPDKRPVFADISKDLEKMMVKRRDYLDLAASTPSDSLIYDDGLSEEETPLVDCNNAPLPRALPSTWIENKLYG
T9 sequence (Q9NWZ3 whole entry): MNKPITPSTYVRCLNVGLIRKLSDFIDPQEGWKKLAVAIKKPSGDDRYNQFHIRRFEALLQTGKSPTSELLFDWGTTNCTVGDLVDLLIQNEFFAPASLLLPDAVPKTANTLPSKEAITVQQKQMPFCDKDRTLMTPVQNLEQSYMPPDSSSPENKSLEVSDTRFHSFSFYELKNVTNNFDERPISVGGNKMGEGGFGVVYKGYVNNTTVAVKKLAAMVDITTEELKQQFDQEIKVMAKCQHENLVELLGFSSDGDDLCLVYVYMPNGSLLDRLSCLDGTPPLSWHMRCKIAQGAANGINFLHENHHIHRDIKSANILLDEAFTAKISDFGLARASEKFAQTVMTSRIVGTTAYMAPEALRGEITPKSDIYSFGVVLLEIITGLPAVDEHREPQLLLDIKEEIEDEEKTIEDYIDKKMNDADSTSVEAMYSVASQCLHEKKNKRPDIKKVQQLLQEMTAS
T3 sequence (P07949 713-1063 limits assumed, one chain of several): as the sequence (P07949 713-1063 M918T limits assumed, one chain of several) above, with T206M counted along it
T14 sequence (P21709 26-976): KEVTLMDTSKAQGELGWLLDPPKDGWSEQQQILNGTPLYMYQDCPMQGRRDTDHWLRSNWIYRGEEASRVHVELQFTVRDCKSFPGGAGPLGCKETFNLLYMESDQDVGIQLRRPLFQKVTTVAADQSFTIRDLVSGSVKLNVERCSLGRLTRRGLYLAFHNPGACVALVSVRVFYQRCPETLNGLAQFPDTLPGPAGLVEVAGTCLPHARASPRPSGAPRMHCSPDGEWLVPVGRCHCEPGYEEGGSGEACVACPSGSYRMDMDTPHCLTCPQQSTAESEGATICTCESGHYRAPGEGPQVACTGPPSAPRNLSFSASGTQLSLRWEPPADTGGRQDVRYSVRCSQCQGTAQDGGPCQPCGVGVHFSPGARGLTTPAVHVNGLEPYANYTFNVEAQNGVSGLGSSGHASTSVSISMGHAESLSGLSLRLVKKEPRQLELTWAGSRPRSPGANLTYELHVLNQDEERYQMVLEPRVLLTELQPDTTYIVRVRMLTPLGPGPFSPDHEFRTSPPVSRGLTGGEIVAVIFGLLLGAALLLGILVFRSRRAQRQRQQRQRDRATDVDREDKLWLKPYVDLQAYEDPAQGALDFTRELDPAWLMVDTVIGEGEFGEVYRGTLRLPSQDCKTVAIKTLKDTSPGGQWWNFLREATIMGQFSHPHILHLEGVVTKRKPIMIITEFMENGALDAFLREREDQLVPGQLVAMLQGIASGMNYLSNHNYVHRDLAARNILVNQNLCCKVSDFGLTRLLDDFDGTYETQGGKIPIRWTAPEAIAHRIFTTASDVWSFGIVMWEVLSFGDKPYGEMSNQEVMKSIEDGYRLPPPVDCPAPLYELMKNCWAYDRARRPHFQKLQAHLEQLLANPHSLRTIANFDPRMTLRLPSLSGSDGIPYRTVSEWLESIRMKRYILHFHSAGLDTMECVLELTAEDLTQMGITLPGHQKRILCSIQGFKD
T1 sequence (P09769 whole entry): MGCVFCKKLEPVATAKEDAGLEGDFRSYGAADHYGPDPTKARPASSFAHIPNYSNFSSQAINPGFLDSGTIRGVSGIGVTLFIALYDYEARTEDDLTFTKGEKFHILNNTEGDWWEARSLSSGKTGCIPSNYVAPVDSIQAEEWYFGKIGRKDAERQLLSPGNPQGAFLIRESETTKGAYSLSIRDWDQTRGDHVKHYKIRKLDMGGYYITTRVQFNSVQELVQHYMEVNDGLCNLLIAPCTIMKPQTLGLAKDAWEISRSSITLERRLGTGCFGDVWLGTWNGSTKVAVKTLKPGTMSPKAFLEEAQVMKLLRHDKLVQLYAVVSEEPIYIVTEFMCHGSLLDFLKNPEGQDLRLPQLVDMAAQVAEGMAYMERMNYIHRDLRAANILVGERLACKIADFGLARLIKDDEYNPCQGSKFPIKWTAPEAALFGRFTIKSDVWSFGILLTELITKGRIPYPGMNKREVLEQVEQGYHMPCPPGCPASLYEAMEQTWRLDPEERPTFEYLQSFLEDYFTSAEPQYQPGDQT
T8 sequence (P16234 24-1089 T674I): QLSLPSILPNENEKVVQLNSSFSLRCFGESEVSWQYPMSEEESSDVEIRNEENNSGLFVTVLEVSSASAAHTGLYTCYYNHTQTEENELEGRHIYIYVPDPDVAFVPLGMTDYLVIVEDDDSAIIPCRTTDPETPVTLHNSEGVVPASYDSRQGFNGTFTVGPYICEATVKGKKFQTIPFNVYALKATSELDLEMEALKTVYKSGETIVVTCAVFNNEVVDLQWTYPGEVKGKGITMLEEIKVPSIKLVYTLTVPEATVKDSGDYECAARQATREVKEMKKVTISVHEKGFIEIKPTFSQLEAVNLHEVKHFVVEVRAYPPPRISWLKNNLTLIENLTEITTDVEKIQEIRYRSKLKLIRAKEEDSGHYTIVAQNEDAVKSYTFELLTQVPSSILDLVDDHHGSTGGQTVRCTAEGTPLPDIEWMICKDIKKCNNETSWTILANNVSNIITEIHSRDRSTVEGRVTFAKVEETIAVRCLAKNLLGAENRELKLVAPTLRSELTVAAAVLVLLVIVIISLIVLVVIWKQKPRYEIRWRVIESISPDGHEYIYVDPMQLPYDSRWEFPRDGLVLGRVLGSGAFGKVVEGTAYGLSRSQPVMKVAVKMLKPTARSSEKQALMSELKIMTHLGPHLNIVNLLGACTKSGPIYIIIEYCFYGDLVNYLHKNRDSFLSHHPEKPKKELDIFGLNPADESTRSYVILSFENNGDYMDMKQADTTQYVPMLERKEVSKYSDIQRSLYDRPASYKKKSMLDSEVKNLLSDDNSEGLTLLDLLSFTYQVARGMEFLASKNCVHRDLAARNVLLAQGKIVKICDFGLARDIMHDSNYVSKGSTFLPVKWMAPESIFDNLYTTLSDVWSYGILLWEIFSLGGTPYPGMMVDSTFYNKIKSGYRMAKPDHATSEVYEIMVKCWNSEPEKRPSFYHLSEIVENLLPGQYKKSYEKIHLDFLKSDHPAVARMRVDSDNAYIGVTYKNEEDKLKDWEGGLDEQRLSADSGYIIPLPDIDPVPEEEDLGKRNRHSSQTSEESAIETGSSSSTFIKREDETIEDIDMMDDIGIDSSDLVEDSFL
T13 sequence (P10721 26-976 T670I): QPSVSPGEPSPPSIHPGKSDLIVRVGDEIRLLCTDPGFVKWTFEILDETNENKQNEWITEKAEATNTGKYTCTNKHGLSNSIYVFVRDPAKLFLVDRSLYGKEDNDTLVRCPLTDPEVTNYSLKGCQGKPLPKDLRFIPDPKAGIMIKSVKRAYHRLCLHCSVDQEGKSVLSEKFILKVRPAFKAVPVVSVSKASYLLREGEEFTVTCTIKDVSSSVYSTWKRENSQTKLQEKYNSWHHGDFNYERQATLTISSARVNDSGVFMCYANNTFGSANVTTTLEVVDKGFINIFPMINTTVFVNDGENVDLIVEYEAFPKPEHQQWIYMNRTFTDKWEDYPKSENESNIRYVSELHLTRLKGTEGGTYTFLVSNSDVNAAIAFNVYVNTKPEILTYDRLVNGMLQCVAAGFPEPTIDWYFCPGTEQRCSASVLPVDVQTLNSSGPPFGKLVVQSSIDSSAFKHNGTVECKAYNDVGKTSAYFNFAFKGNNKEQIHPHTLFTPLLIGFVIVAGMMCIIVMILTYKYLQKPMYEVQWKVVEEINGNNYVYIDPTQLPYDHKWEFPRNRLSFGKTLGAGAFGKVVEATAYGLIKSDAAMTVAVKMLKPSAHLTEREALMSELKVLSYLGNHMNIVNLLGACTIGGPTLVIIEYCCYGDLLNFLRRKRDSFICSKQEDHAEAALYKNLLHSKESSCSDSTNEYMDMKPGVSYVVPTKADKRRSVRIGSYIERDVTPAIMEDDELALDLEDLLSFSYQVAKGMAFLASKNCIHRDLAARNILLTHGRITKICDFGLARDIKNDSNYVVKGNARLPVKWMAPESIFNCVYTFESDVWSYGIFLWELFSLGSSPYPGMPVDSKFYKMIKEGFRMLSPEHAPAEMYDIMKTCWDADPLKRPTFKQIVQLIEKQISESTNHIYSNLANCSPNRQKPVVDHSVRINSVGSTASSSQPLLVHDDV
T15 sequence (P10721 26-976 V654A): as the sequence (P10721 26-976 T670I) above, with V629A, I645T counted along it
T4 sequence (P04049 whole entry): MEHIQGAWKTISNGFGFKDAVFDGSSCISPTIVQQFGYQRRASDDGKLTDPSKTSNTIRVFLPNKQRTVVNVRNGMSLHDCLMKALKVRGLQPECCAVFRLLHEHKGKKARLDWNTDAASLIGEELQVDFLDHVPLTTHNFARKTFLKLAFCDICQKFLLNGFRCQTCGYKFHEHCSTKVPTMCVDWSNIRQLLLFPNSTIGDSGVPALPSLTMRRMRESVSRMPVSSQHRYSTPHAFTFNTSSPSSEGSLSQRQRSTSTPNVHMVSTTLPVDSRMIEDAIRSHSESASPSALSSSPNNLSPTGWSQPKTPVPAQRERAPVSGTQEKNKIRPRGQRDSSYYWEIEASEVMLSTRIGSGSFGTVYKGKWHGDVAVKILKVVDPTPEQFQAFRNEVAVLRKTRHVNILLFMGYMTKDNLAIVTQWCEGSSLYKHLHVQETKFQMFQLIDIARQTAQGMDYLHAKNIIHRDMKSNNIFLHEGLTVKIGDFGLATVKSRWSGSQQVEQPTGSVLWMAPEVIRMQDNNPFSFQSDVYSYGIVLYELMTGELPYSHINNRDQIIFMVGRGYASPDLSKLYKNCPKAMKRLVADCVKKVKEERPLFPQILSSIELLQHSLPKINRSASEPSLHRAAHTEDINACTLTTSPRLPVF

Q: For `COc1cc2nccc(Oc3ccc(NC(=O)NC4CC4)c(Cl)c3)c2cc1C(N)=O` [Lenvatinib, Lenvatinib mesilate], which IC50 [1] is on record?
A: Its IC50 is 910 nM.

Q: And the “phosphorylation of M918T mutant RET” value [2]?
A: The value was “inhibited”.

Q: And the “phosphorylation of wild-type RET” value [3]?
A: The value was “inhibited”.

Q: What about the IC50 [4] of the same molecule?
A: Its IC50 is 1600 nM.

Q: What about the IC50 [5] of the same molecule?
A: The IC50 was greater than 10 µM.

Q: What about the IC50 [6] of the same molecule?
A: Its IC50 is 520 nM.

Q: And the IC50 [7]?
A: The IC50 was greater than 10 µM.

Q: What about the IC50 [8] of the same molecule?
A: Its IC50 is 28 µM.

Q: What about the IC50 [9] of the same molecule?
A: Its IC50 is 630 nM.

Q: And the IC50 [10]?
A: The IC50 was greater than 10 µM.

Q: And the IC50 [11]?
A: The IC50 was 28 µM.

Q: And the “macroscopic changes or loss of body weight” value [12]?
A: Its value is “no macroscopic changes or loss of body weight were observed”.

Q: What about the “phosphorylation of RET and of ERK1/2” value [13] of the same molecule?
A: The value was “inhibited”.

Q: What about the IC50 [14] of the same molecule?
A: The IC50 was greater than 10 µM.

Q: What about the IC50 [15] of the same molecule?
A: The IC50 was 26 µM.

Q: And the IC50 [16]?
A: The IC50 was greater than 10 µM.

Q: What about the IC50 [17] of the same molecule?
A: The IC50 was 43 nM.

Q: And the IC50 [18]?
A: Its IC50 is 410 nM.

Q: And the IC50 [19]?
A: Its IC50 is 5.1 µM.

Q: And the tumor volume change ([20]; TT xenografts, 100 mg/kg oral once daily 29 days)?
A: Its tumor volume change is “tumor shrinkage”.

Q: What about the “in vivo tumor growth” value ([20]; TT xenografts, 10, 30, and 100 mg/kg oral once daily 29 days) of the same molecule?
A: Its value is “inhibited in vivo tumor growth of TT xenografts in a dose-dependent manner”.

Q: And the antitumor activity [21]?
A: The antitumor activity was “significant antitumor activity”.

Q: What about the IC50 [22] of the same molecule?
A: Its IC50 is 520 nM.

Q: What about the IC50 [23] of the same molecule?
A: The IC50 was 4.7 nM.

Reference: paper PMC4177084 (Journal of Thyroid Research, 2014)
